Laboratory results taken from PubChem BioAssay (NCI).
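Protocol summary: plate cells (96-well), add compound at 5 concentrations, incubate 48 h, interpolate endpoints linearly. The concentration for 50% growth inhibition is given as GI50. At the TGI there is no net growth.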

What was measured:
Test in all cases: NCI-60 cell line screen, 48 h
[1] = system: BT-549 breast
[2] = system: HL-60(TB) leukemia
[3] = system: OVCAR-3 ovarian
[4] = system: SF-539 CNS
[5] = system: T-47D breast
[6] = system: HCC-2998 colon
[7] = system: SF-295 CNS
[8] = system: RPMI-8226 leukemia
[9] = system: SF-268 CNS
[10] = system: UO-31 renal
[11] = system: HOP-62 NSCLC
[12] = system: 786-0 renal
[13] = system: CCRF-CEM leukemia
[14] = system: MCF7 breast
[15] = system: ACHN renal
[16] = system: SK-OV-3 ovarian
[17] = system: MOLT-4 leukemia
[18] = system: NCI-H226 lung
[19] = system: HS 578T breast
[20] = system: LOX IMVI melanoma
[21] = system: NCI-H23 lung
[22] = system: EKVX NSCLC
[23] = system: NCI-H460 lung
[24] = system: HCT-116 colon
[25] = system: MDA-MB-435
[26] = system: K-562 leukemia
[27] = system: SN12C renal
[28] = system: COLO 205 colon
[29] = system: TK-10 renal
[30] = system: NCI-H522 lung
[31] = system: KM12 colon
[32] = system: M14 melanoma
[33] = system: SK-MEL-28 melanoma
[34] = system: HOP-92 NSCLC
[35] = system: DU-145 prostate
[36] = system: A498 renal
[37] = system: UACC-62 melanoma
[38] = system: OVCAR-5 ovarian
[39] = system: A549 NSCLC
[40] = system: MDA-MB-231 breast
[41] = system: NCI/ADR-RES ovarian
[42] = system: PC-3 prostate
[43] = system: CAKI-1 renal
[44] = system: U251 CNS
[45] = system: OVCAR-8 ovarian
[46] = system: HCT-15 colon
[47] = system: SNB-75 CNS
[48] = system: IGROV1 ovarian
[49] = system: SNB-19 CNS
[50] = system: UACC-257 melanoma
[51] = system: SK-MEL-2 melanoma
[52] = system: MALME-3M melanoma
[53] = system: RXF 393 renal
[54] = system: SW-620 colon
[55] = system: HT29 colon
[56] = system: SK-MEL-5 melanoma
[57] = system: SR leukemia
[58] = system: OVCAR-4 ovarian

## CCCc1cc2cc(-n3nc(CC)c4c3CC(C)(C)CC4=O)cc(NC3CCC(O)CC3)c2c(=O)[nH]1 (stereo unspecified)
[1]
  GI50: 2300 nM
  TGI: > 100000 nM
[2]
  GI50: 315 nM
  TGI: > 100000 nM
[3]
  GI50: 4.43 µM
  TGI: > 100 µM
[4]
  GI50: 1720 nM
  TGI: 89.3 µM
[5]
  GI50: 2.06 µM
  TGI: > 100 µM
[6]
  GI50: 842 nM
  TGI: > 100 µM
[7]
  GI50: 759 nM
  TGI: > 100 µM
[8]
  GI50: 1580 nM
  TGI: > 100 µM
[9]
  GI50: 7.29 µM
  TGI: > 100 µM
[10]
  GI50: 568 nM
  TGI: > 100 µM
[11]
  GI50: 836 nM
  TGI: > 100 µM
[12]
  GI50: 2950 nM
  TGI: > 100 µM
[13]
  GI50: 1340 nM
  TGI: > 100 µM
[14]
  GI50: 289 nM
  TGI: > 100 µM
[15]
  GI50: 495 nM
  TGI: > 100 µM
[16]
  GI50: 409 nM
  TGI: > 100 µM
[17]
  GI50: 503 nM
  TGI: > 100 µM
[18]
  GI50: 2620 nM
  TGI: > 100 µM
[19]
  GI50: 3490 nM
  TGI: > 100 µM
[20]
  GI50: 198 nM
  TGI: > 100 µM
[21]
  GI50: 127 nM
  TGI: 50.8 µM
[22]
  GI50: > 100000 nM
  TGI: > 100 µM
[23]
  GI50: 482 nM
  TGI: > 100 µM
[24]
  GI50: 193 nM
  TGI: > 100 µM
[25]
  GI50: 444 nM
  TGI: > 100000 nM
[26]
  GI50: 185 nM
  TGI: > 100 µM
[27]
  GI50: 365 nM
  TGI: > 100 µM
[28]
  GI50: 464 nM
  TGI: > 100 µM
[29]
  GI50: 621 nM
  TGI: > 100 µM
[30]
  GI50: 1010 nM
  TGI: 11.5 µM
[31]
  GI50: 758 nM
  TGI: > 100 µM
[32]
  GI50: 572 nM
  TGI: > 100 µM
[33]
  GI50: 869 nM
  TGI: > 100 µM
[34]
  GI50: 1710 nM
  TGI: 8.6 µM
[35]
  GI50: 530 nM
  TGI: > 100 µM
[36]
  GI50: 2020 nM
  TGI: > 100000 nM
[37]
  GI50: 487 nM
  TGI: > 100 µM
[38]
  GI50: 3510 nM
  TGI: > 100 µM
[39]
  GI50: 1460 nM
  TGI: > 100 µM
[40]
  GI50: 652 nM
  TGI: > 100 µM
[41]
  GI50: 3.88 µM
  TGI: > 100 µM
[42]
  GI50: 1310 nM
  TGI: > 100 µM
[43]
  GI50: 1130 nM
  TGI: > 100 µM
[44]
  GI50: 3370 nM
  TGI: > 100 µM
[45]
  GI50: 2040 nM
  TGI: > 100 µM
[46]
  GI50: 400 nM
  TGI: > 100 µM
[47]
  GI50: 6.22 µM
  TGI: > 100 µM
[48]
  GI50: 831 nM
  TGI: > 100 µM
[49]
  GI50: 3020 nM
  TGI: > 100 µM
[50]
  GI50: 3000 nM
  TGI: > 100 µM
[51]
  GI50: 2270 nM
  TGI: > 100 µM
[52]
  GI50: 839 nM
  TGI: > 100 µM
[53]
  GI50: 408 nM
  TGI: 2410 nM
[54]
  GI50: 370 nM
  TGI: > 100 µM
[55]
  GI50: 100 nM
  TGI: > 100 µM
[56]
  GI50: 1940 nM
  TGI: > 100000 nM

## COc1cc(OC)c(/C=C/S(=O)(=O)Cc2ccc(OC)c(NC(=O)CCC(=O)NO)c2)c(OC)c1
[1]
  GI50: 24.4 nM
  TGI: 72.4 nM
[2]
  GI50: 26.2 nM
  TGI: 88 nM
[4]
  GI50: 26.1 nM
  TGI: 0.432 µM
[57]
  GI50: 20.3 nM
  TGI: > 100 µM
[5]
  GI50: 30.6 µM
  TGI: > 100 µM
[6]
  GI50: 34.5 nM
  TGI: > 100 µM
[7]
  GI50: 14.4 nM
  TGI: > 100 µM
[8]
  GI50: 45.2 nM
  TGI: > 100 µM
[9]
  GI50: 0.102 µM
  TGI: > 100 µM
[10]
  GI50: 107 nM
  TGI: > 100 µM
[11]
  GI50: 67.5 nM
  TGI: > 100 µM
[12]
  GI50: 43.6 nM
  TGI: > 100 µM
[13]
  GI50: 35.3 nM
  TGI: > 100 µM
[14]
  GI50: 25 nM
  TGI: > 100 µM
[15]
  GI50: 33.2 nM
  TGI: > 100 µM
[16]
  GI50: 1170 nM
  TGI: > 100 µM
[17]
  GI50: 46.7 nM
  TGI: > 100 µM
[18]
  GI50: 99.5 nM
  TGI: > 100 µM
[19]
  GI50: 23 nM
  TGI: > 100 µM
[20]
  GI50: 29.6 nM
  TGI: > 100 µM
[21]
  GI50: 49.9 nM
  TGI: > 100 µM
[22]
  GI50: 57.3 nM
  TGI: > 100 µM
[23]
  GI50: 34 nM
  TGI: > 100 µM
[24]
  GI50: 27.8 nM
  TGI: > 100 µM
[25]
  TGI: 31.5 nM
[26]
  GI50: < 15.4 nM
  TGI: > 100 µM
[27]
  GI50: 61.8 nM
  TGI: > 100 µM
[28]
  GI50: 32.9 nM
[29]
  GI50: > 100000 nM
  TGI: > 100 µM
[30]
  GI50: < 12.6 nM
[31]
  GI50: 30.7 nM
  TGI: > 100 µM
[32]
  GI50: 18.8 nM
  TGI: > 100 µM
[33]
  GI50: > 84500 nM
  TGI: > 100 µM
[34]
  GI50: 251 nM
  TGI: > 100 µM
[35]
  GI50: 45.1 nM
  TGI: > 100 µM
[36]
  GI50: < 13.4 nM
  TGI: 79.4 nM
[37]
  GI50: 19.8 nM
  TGI: > 100 µM
[38]
  GI50: 55 nM
  TGI: > 100 µM
[39]
  GI50: 39.7 nM
  TGI: > 100 µM
[40]
  GI50: 47.8 nM
  TGI: > 100 µM
[41]
  GI50: < 0.0158 µM
  TGI: > 100 µM
[42]
  GI50: 31.1 nM
  TGI: > 100 µM
[43]
  GI50: < 15.9 nM
  TGI: > 100 µM
[44]
  GI50: 38.7 nM
  TGI: > 100 µM
[45]
  GI50: 41.2 nM
  TGI: > 100 µM
[46]
  GI50: 22.5 nM
  TGI: > 100 µM
[58]
  TGI: > 100 µM
[47]
  GI50: 0.0184 µM
  TGI: 3.68 µM
[48]
  GI50: 38.6 nM
  TGI: > 100 µM
[49]
  GI50: 46.3 nM
  TGI: > 100 µM
[50]
  GI50: > 100000 nM
  TGI: > 100 µM
[51]
  TGI: > 37.2 µM
[52]
  GI50: > 100000 nM
  TGI: > 100 µM
[53]
  GI50: 21.4 nM
  TGI: > 100000 nM
[54]
  GI50: 37.7 nM
  TGI: > 100 µM
[55]
  GI50: 38.7 nM
  TGI: > 100 µM
[56]
  GI50: 29.9 nM
  TGI: 256 nM
